Here are results for 17 molecules from article PMC2760346 (Bioorganic & medicinal chemistry, 2009).

Test [1] concerns the target T1, human P2Y14 receptor (Homo sapiens, UniProt Q15391).
T1 sequence (Q15391 1-338): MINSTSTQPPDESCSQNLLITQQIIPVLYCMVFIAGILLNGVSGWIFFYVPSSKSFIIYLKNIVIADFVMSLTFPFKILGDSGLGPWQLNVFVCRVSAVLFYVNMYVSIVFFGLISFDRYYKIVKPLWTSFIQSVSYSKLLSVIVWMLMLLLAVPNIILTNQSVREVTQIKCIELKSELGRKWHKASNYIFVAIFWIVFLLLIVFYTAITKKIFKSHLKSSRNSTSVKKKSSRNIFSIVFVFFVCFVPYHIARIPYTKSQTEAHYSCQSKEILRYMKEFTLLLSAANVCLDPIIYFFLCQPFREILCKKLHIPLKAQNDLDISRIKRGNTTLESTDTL
As to conditions: cited from earlier work.

The next test deals with human P2Y2 receptor (Homo sapiens, UniProt P41231). It counts as cell-based. As to conditions: at concentrations up to 10 μM.
The target in test [2] is T1, human P2Y14 receptor. Put plainly: Stimulation of PLC. It counts as cell-based. As to conditions: for fold less potent than 1 at the P2Y14 receptor: relative to 1; for activation of the P2Y14 receptor, % of full activation: at 10 μM.
The test system of a further test is rat P2Y14 receptor. The following applies: cited from earlier work.

Chain of human P2Y2 receptor (P41231 whole entry): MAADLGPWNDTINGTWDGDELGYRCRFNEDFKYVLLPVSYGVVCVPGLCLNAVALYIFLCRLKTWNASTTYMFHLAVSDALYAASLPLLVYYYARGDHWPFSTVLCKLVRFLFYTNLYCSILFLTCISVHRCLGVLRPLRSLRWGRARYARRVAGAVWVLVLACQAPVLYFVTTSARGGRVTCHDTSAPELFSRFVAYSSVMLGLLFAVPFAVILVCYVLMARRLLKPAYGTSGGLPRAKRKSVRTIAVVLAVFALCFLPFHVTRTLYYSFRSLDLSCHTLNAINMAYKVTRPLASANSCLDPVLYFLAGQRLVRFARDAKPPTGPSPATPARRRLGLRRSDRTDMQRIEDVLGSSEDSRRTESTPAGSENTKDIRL

Turning to `O=c1ccn(C2CC(O)C(COP(=O)(O)OP(=O)(O)OC3OC(CO)C(O)C(O)C3O)O2)c(=O)[nH]1` (stereo not shown) [2′-deoxy-UDPG], at human P2Y14 receptor [1], the “activity at the P2Y14 receptor” value is “inactive”.

Regarding `O=c1ccn([C@@H]2O[C@H](COP(=O)(O)OP(=O)(O)O[C@H]3O[C@H](CO)[C@@H](O)[C@H](O)[C@H]3O)[C@@H](O)[C@H]2O)c(=S)[nH]1` [Compound 2, 2-thio-UDP-[1″]glucose], on human P2Y2 receptor, the “activity at the human P2Y2 receptor (activation of PLC)” value (from here on “activity at the human P2Y2 receptor”) is “inactive”. Further, on human P2Y14 receptor [1] (relative to 1), the “fold increase in P2Y14 potency” value was 7 fold.

With `CO/N=c1/ccn([C@@H]2O[C@H](COP(=O)(O)OP(=O)(O)O[C@H]3O[C@H](CO)[C@@H](O)[C@H](O)[C@H]3O)[C@@H](O)[C@H]2O)c(=O)[nH]1` [Compound 4, Diphosphoric Acid 1″-α-D-[1″]Glucopyranosyl Ester 2-((N^4-methoxy)cytidin-5′-yl)ester], the “agonist activity at the P2Y14 receptor” value at human P2Y14 receptor [2] is recorded as “only weakly active”.

`O=c1ccn([C@@H]2O[C@H](COP(=O)(O)OP(=O)(O)O[C@H]3O[C@H](CO)[C@@H](O)[C@H](O)[C@H]3F)[C@@H](O)[C@H]2O)c(=O)[nH]1` [Compound 11, UDP-2″-F-[1″]2″-deoxy glucose]: the “fold less potent than 1 at the P2Y14 receptor” value on human P2Y14 receptor [2] is 9.6 fold.

Consider `O=c1ccn([C@@H]2O[C@H](COP(=O)(O)OP(=O)(O)O[C@H]3O[C@H](CO)[C@@H](O)[C@H](F)[C@H]3O)[C@@H](O)[C@H]2O)c(=O)[nH]1` [Compound 12, UDP-3″-F-[1″]3″-deoxy glucose], for which the “activity at the human P2Y2 receptor” value on human P2Y2 receptor is “inactive”.

On to `O=c1ccn([C@@H]2O[C@H](COP(=O)(O)OP(=O)(O)O[C@H]3O[C@H](CO)[C@@H](F)[C@H](O)[C@H]3O)[C@@H](O)[C@H]2O)c(=O)[nH]1` [Compound 13, UDP-4″-F-[1″]4″-deoxy glucose], for which the “fold less potent than 1 at the P2Y14 receptor” value on human P2Y14 receptor [2] was 2 fold.

For `O=c1ccn([C@@H]2O[C@H](COP(=O)(O)OP(=O)(O)O[C@H]3O[C@H](CF)[C@@H](O)[C@H](O)[C@H]3O)[C@@H](O)[C@H]2O)c(=O)[nH]1` [Compound 14, UDP-6″-F-[1″]6″-deoxy glucose], the “fold less potent than 1 at the P2Y14 receptor” value on human P2Y14 receptor [2] is 3.5 fold.

As for `NCCNC(=O)[C@H]1O[C@H](OP(=O)(O)OP(=O)(O)OC[C@H]2O[C@@H](n3ccc(=O)[nH]c3=O)[C@H](O)[C@@H]2O)[C@H](O)[C@@H](O)[C@@H]1O` [Compound 16, Diphosphoric Acid 1″-α-D-[1″](Glucuronic acid-N-(2-amino-ethyl amide))pyranosyl Ester 2-(uridin-5′-yl)ester], the “efficacy at the P2Y14 receptor” value at human P2Y14 receptor [2] is on record as “fully activated the receptor”.

As to `CC(=O)NCCNC(=O)[C@H]1O[C@H](OP(=O)(O)OP(=O)(O)OC[C@H]2O[C@@H](n3ccc(=O)[nH]c3=O)[C@H](O)[C@@H]2O)[C@H](O)[C@@H](O)[C@@H]1O` [Compound 17a, Diphosphoric Acid 1″-α-D-[1″](Glucuronic acid-N-(2-acetylethyl amide))pyranosyl Ester 2-(uridin-5′-yl)ester], the “efficacy at the P2Y14 receptor” value at human P2Y14 receptor [2] was “fully activate”. In addition, the “activity at the human P2Y2 receptor” value at human P2Y2 receptor is “inactive”.

In the case of `CC(C)(C)OC(=O)NCCNC(=O)[C@H]1O[C@H](OP(=O)(O)OP(=O)(O)OC[C@H]2O[C@@H](n3ccc(=O)[nH]c3=O)[C@H](O)[C@@H]2O)[C@H](O)[C@@H](O)[C@@H]1O` [Compound 17b, Diphosphoric Acid 1″-α-D-[1″] (Glucuronic acid-N-(2-t-butyloxycarbonylethyl amide))pyranosyl Ester 2-(uridin-5′-yl)ester], the “efficacy at the P2Y14 receptor” value on human P2Y14 receptor [2] is “fully activate”.

As for `O=c1ccn([C@@H]2O[C@H](COP(=O)(O)OP(=O)(O)OC[C@H]3O[C@H](O)C[C@@H](O)[C@@H]3O)[C@@H](O)[C@H]2O)c(=O)[nH]1` [Compound 20, Up2-[6″]2″-deoxyglucose], the “activation of the P2Y14 receptor, % of full activation” value on human P2Y14 receptor [2] is “less than 50%”.

In the case of `O=c1ccn([C@@H]2O[C@H](COP(=O)(O)OP(=O)(O)OC[C@H]3O[C@H](O)[C@@H](O)[C@@H]3O)[C@@H](O)[C@H]2O)c(=O)[nH]1` [Compound 22, Up2-[5″]arabinose], the “fold decrease in P2Y14 potency on inversion of the 2″-hydroxyl configuration” value on human P2Y14 receptor [2] (relative to 21) came to 2 fold.

As to `O=c1ccn([C@@H]2O[C@H](COP(=O)(O)OP(=O)(O)OC[C@H]3O[C@](O)(CO)[C@@H](O)[C@@H]3O)[C@@H](O)[C@H]2O)c(=O)[nH]1` [Compound 24, Up2-[6″]fructose], at human P2Y2 receptor, the “activity at the human P2Y2 receptor” value is “inactive”.

As for `O=c1ccn([C@@]23C[C@H]2[C@H](COP(=O)(O)OP(=O)(O)O[C@H]2O[C@H](CO)[C@@H](O)[C@H](O)[C@H]2O)[C@@H](O)[C@H]3O)c(=O)[nH]1` [Compound 27, Diphosphoric Acid 1″-α-D-[1″]Glucopyranosyl Ester 2-((S)-Methanocarba-uridin-5′-yl)ester], at human P2Y14 receptor [2], the concentration giving a half-maximal response (EC50) (as a rule, the concentration that produces a half-maximal response) is above 10 µM and the “agonist activity at the P2Y14 receptor” value is “abolished agonist activity”.

Consider `O=c1ccn([C@H]2[C@H](O)[C@H](O)[C@@]3(COP(=O)(O)OP(=O)(O)O[C@H]4O[C@H](CO)[C@@H](O)[C@H](O)[C@H]4O)C[C@H]23)c(=O)[nH]1` [Compound 28, Diphosphoric Acid 1″-α-D-[1″]Glucopyranosyl Ester 2-((N)-Methanocarba-uridin-5′-yl)ester], for which, at human P2Y14 receptor [2], the EC50 is above 10 µM and the “agonist activity at the P2Y14 receptor” value is given as “abolished agonist activity”.

In the case of `O=c1ccn([C@@H]2C[C@H](COP(=O)(O)OP(=O)(O)O[C@H]3O[C@H](CO)[C@@H](O)[C@H](O)[C@H]3O)[C@@H](O)[C@H]2O)c(=O)[nH]1` [Compound 29, Diphosphoric Acid 1″-α-D-[1″]Glucopyranosyl Ester 2-(carbocyclic uridin-5′-yl)ester], at human P2Y14 receptor [2], the “activation of the P2Y14 receptor, % of full activation” value is reported as below 20%.

In the case of `O=c1ccn([C@@H]2O[C@H](COP(=O)(O)OP(=O)(O)O)[C@@H](O)[C@H]2O)c(=O)[nH]1` [UDP, Uridine 5′-diphosphate], on human P2Y14 receptor [1], the “type of activity at the human P2Y14 receptor” value is “partial agonist/competitive antagonist”. Also, the “type of activity at the rat P2Y14 receptor” value in the test with rat P2Y14 receptor is recorded as “potent agonist”.
